Molecules are shown by their SMILES.

The data set can be described thus: gradient 5% acetonitrile 3 min, to 50% in 2 min, to 85% in 15 min, held 3 min, 100 µL/min. Conditions: column: Zorbax Extend-C18 2.1 x 50 mm; eluents: water / acetonitrile, 0.1% formic acid. In outline: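 Each retention time is based on an adduct peak selected computationally and verified by manual inspection. Measurements used HPLC–quadrupole time-of-flight mass spectrometry in positive and negative ionization mode on mixtures of ~100 pure standards. Chromatography ran on a Zorbax Extend-C18 column (2.1 × 50 mm, 1.8 μm) at 100 μL/min with water and acetonitrile, each containing 0.1% formic acid, and dead and dwell volumes of 40 μL and 900 μL.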
Consider `COc1ccc(Cl)cc1NS(=O)(=O)c1cc(-c2[nH]ncc2C(=O)N(C)C)oc1C`, for which the RP-LC retention time was 716 s.

On to `Cc1ccc(NS(=O)(=O)c2ccc(-c3c(C)noc3C)cc2)cc1`, for which the RP-LC retention time was 928 s.

Molecule `CCc1nc2c(c(=O)n1CC(=O)NC1CCCCC1)CN(Cc1ccccc1)CC2` showed an RP-LC retention time of 652 s.

As to `O=C(O)CCCCC1SCC2NC(=O)NC21` (configuration not stated), the RP-LC retention time worked out at 634 s.

Regarding `O=C1[C@H]2CN(Cc3ccc(Cl)c(F)c3)C[C@H]2C(=O)N1Cc1ccc2c(c1)OCO2`, the RP-LC retention time stood at 953 s.

On to `COc1ccc(CNC(=O)NCC(c2ccccc2Cl)N(C)C)cc1` (configuration not stated), for which the RP-LC retention time was 577 s.

As for `COC(=O)c1ccc(NC(=O)Cn2nc3nc(N4CCCC(C)C4)ccn3c2=O)cc1` (configuration not stated), the RP-LC retention time was 774 s.

The molecule `CC(C)c1cccc(NC(=O)C2CCCN(c3cn[nH]c(=O)c3)C2)c1` (configuration not stated) had an RP-LC retention time of 692 s.

Consider `COCCNC(=O)c1sc2ncn(CC(=O)N3CCCCC3C)c(=O)c2c1C` (configuration not stated), for which the RP-LC retention time amounted to 679 s.

`COCC(=O)NC1CCC12CCN(C(=O)CCC1CCCC1)CC2` (configuration not stated) yielded an RP-LC retention time of 735 s.

`Nc1ncnc2c1ncn2C1CCCC1` displayed an RP-LC retention time of 595 s.

`Cc1ccc(F)cc1NC(=O)c1cnc2c(c1)c(=O)n(C)c(=O)n2-c1ccccc1` had an RP-LC retention time of 881 s.

As for `CC(C)CN1CCn2cc(C(=O)NCc3ccc(F)cc3Cl)nc2C1`, the RP-LC retention time is 646 s.

With `Cc1ccc2nc(-c3ccc(O)cc3)c(Nc3ccc4c(c3)OCO4)n2c1`, the RP-LC retention time amounted to 633 s.

Turning to `CCN(c1cccc(C)c1)S(=O)(=O)c1cc2n(c1)CCCNC2=O`, the RP-LC retention time came to 720 s.

The molecule `COCc1cn(C2CN(C(=O)c3cnc(C)cn3)C2)nn1` showed an RP-LC retention time of 592 s.

In turn, `NCCNS(=O)(=O)c1cccc2c(Cl)cccc12` yielded an RP-LC retention time of 701 s.

Consider `COc1cccc(Cc2nc(-c3cccc(-c4ccn[nH]4)c3)no2)c1`, for which the RP-LC retention time is 932 s.

Take `CCCn1cc(CCNC(=O)c2ccc(F)c(F)c2)c2cccnc21`: the RP-LC retention time amounted to 791 s.

Regarding `O=C1CCN(C2OC(CO)C(O)C2O)C(=O)N1` (configuration not stated), the RP-LC retention time turned out to be 1040 s.

Turning to `Cn1cc(C(=O)NCc2cccs2)c2cccnc21`, the RP-LC retention time is 691 s.

The molecule `CCOc1cccc(-c2noc(-c3nnn(Cc4nc(-c5cccc(C)c5)oc4C)c3C)n2)c1` returned an RP-LC retention time of 1410 s.

In turn, `Cc1ccc(S(=O)(=O)N2CC[C@H](c3n[nH]c(C)n3)[C@H](N(C)C)C2)c(C)c1` yielded an RP-LC retention time of 623 s.

As to `O=C(c1cccc2c1CCN2C(=O)C1CC1)N1CCOCC1`, the RP-LC retention time amounted to 645 s.

Molecule `CCOc1ccc(CCNC(=O)c2cc(S(=O)(=O)N3CCCCC3)c(C)n2C)cc1OCC` gave an RP-LC retention time of 1010 s.

As to `COc1ccc(-n2ccn3cc(-c4cccs4)nc3c2=O)cc1Cl`, the RP-LC retention time was 818 s.

`CCOc1ccc(-c2cn3ccn(-c4cc(C)c(Cl)cc4OC)c(=O)c3n2)cc1` displayed an RP-LC retention time of 972 s.

Molecule `CSc1ccc(-c2nc3cnccn3c2Nc2ccccc2C)cc1` came in with an RP-LC retention time of 974 s.

Molecule `CC(NC(=O)c1c(O)c2cccnc2n(-c2cccc(F)c2)c1=O)c1ccccc1` (configuration not stated) gave an RP-LC retention time of 1230 s.

`O=C(Nc1nnc(C2CC(=O)N(c3ccccc3)C2)o1)c1ccc(Br)cc1` (configuration not stated) yielded an RP-LC retention time of 766 s.

`COC(=O)c1cc(C2CC2)nc2c1c(=O)n(Cc1ccccc1)c(=O)n2C` displayed an RP-LC retention time of 1030 s.

`O=C(Cn1cccc(-c2nc(-c3ccc(Br)cc3)no2)c1=O)N1CCCc2ccccc21` came in with an RP-LC retention time of 1070 s.

In the case of `CCc1ccccc1NC(=O)Cn1c(N)nc(C(C)C)cc1=O`, the RP-LC retention time was 638 s.

The molecule `O=C(Cc1ccc(NC(=O)c2ncc(-c3ccccc3)o2)cc1)NCc1cccs1` yielded an RP-LC retention time of 866 s.

The molecule `COC(=O)c1cc(S(=O)(=O)N2CCCC2C(=O)Nc2ccc(Br)cc2F)cn1C` (configuration not stated) had an RP-LC retention time of 999 s.

As for `CCOc1ccccc1C(=O)n1nc(C)c(S(=O)(=O)N2CCCC2)c1C`, the RP-LC retention time came out at 1040 s.

On to `O=C(C1=NN(Cc2cc(F)cc(F)c2)c2ccccc2S1(=O)=O)N1CCCCC1`, for which the RP-LC retention time was 956 s.

In turn, `CC(NC(=O)c1cccc(NC(=O)c2ccco2)c1)C(=O)N1CCCc2ccccc21` (configuration not stated) displayed an RP-LC retention time of 804 s.

`COC(=O)c1ccc2c(=O)n(-c3cccc(Cl)c3)c(N3CCSC3)nc2c1`: the RP-LC retention time stood at 1110 s.

In turn, `Cn1c(N2CCCC(C(=O)Nc3ccc(F)cc3F)C2)cc(=O)n(C)c1=O` (configuration not stated) registered an RP-LC retention time of 700 s.

Regarding `COc1ccc(OCc2noc(CNC(=O)CSc3nnnn3C)n2)cc1`, the RP-LC retention time worked out at 658 s.

As for `CS(=O)(=O)N1CCC(C(=O)Nc2ccc3cn[nH]c3c2)CC1`, the RP-LC retention time came out at 588 s.

For the molecule `COc1ccc(-c2cc(C(=O)N3CCN(C)CC3)nn2C2CCS(=O)(=O)C2)cc1` (configuration not stated), the RP-LC retention time is 613 s.

The molecule `O=C(Nc1cccc(Cl)c1)N1CCCC1c1nc(-c2ccc(F)cc2F)no1` (configuration not stated) showed an RP-LC retention time of 1030 s.

For `O=C(Nc1ccc(C2=NCCN2)cc1)c1ccc(Cl)c(C(=O)Nc2ccc(C3=NCCN3)cc2)c1`, the RP-LC retention time was determined as 618 s.

Consider `Cc1ccnc(N2CCCC(C(=O)NCCCN3CCCCCC3)C2)n1` (configuration not stated), for which the RP-LC retention time was 586 s.

In turn, `CCOC(=O)c1nc(NCCCOC)c2c(-c3ccc(F)cc3)noc2n1` gave an RP-LC retention time of 944 s.

As to `NC(=O)CCCCn1ccc(NC(N)=NCC(F)(F)F)n1`, the RP-LC retention time came out at 617 s.

`Cc1nn2c(CNC(=O)c3cccc(C(F)(F)F)c3)c(C)nc2s1`: the RP-LC retention time came out at 688 s.

Consider `Cn1nc(N2CCC(NC(=O)Cc3cccs3)C2)ccc1=O` (configuration not stated), for which the RP-LC retention time was determined as 627 s.

In turn, `Cc1ccc(NC(=O)c2c(C)oc3nc(C)nc(N4CCOCC4)c23)c(C)c1` showed an RP-LC retention time of 849 s.

As for `Cc1ccc(C(=O)N2CCCn3cc(-c4ccccc4)nc32)cn1`, the RP-LC retention time turned out to be 605 s.

Consider `CCCC(=O)NC1CCN(c2ccc(F)cc2)C1=O` (configuration not stated), for which the RP-LC retention time was 659 s.

For `O=C(Nc1nc(-c2ccccc2)cs1)c1c(-c2ccc(Cl)cc2)nc2n1CCS2(=O)=O`, the RP-LC retention time was determined as 1080 s.

`O=C(Cn1ncc2c(c1=O)N(C1CC1)C(=O)CS2)NC1CCCC1` had an RP-LC retention time of 615 s.

With `Cc1cc(C(=O)NC2CCc3nnc(C)n3CC2)c(C)n1Cc1ccco1` (configuration not stated), the RP-LC retention time was 643 s.

In turn, `O=C(NCCc1csc(-c2cccs2)n1)C1CCN(C(=O)c2ccccc2)CC1` came in with an RP-LC retention time of 740 s.

Turning to `CCc1ccc(Oc2cc(N3CCC(C(=O)NCCC4=CCCCC4)CC3)ncn2)cc1`, the RP-LC retention time was 1150 s.

The molecule `Cc1nc(-c2csc(S(=O)(=O)N3CCCC(C(=O)Nc4ccccc4F)C3)c2)no1` (configuration not stated) registered an RP-LC retention time of 929 s.

`CS(=O)(=O)N1CCC(C(=O)NC2CCCCCCC2)Oc2ccc(Cl)cc21` (configuration not stated) returned an RP-LC retention time of 1070 s.

`Cc1c(C)n(C)c2ccc(C(=O)NCC(C)C)cc12` displayed an RP-LC retention time of 909 s.

Turning to `Cc1cc(=O)n(CC(=O)Nc2ccc(Br)cc2)c(N2CCOCC2)n1`, the RP-LC retention time turned out to be 712 s.

Consider `CCS(=O)(=O)Nc1ccc2nc(N3CCN(c4cc(C)ccc4C)CC3)cc(C(=O)O)c2c1`, for which the RP-LC retention time was found to be 607 s.

Turning to `Cc1ccccc1S(=O)(=O)N1CCC(CCC(=O)O)CC1`, the RP-LC retention time worked out at 807 s.

As for `CCC(CO)Nc1ncc([N+](=O)[O-])c(N)n1` (configuration not stated), the RP-LC retention time was determined as 570 s.

`Cc1cnc(C2CC2)n1CCNS(=O)(=O)c1ccccc1F`: the RP-LC retention time turned out to be 587 s.

Consider `O=C(C1CCN(c2cnc(N3CCOCC3)nc2)CC1)N1CCCCCC1`, for which the RP-LC retention time is 684 s.

Molecule `Nc1nc(OCc2cc(Br)cs2)c2[nH]cnc2n1` yielded an RP-LC retention time of 687 s.

As to `Cc1cccc(C(=O)N2C[C@H](c3nc(-c4ccccc4)no3)[C@@H](C)C2)c1`, the RP-LC retention time is 731 s.

As for `Cc1cc2n(n1)CCCN2C(=O)CCC(=O)N1CCN(c2ccccn2)CC1`, the RP-LC retention time was 555 s.

`O=C(CN1c2ccc(F)cc2-c2ccccc2S1(=O)=O)Nc1cccnc1`: the RP-LC retention time turned out to be 681 s.

In the case of `O=C(Nc1cn(-c2ccc(C(=O)N3CCN(c4cccc(Cl)c4)CC3)cc2)cn1)C1CC1`, the RP-LC retention time worked out at 810 s.

In the case of `COc1cc(C(=O)NCCNc2cc(-n3cccn3)ncn2)cc(OC)c1OC`, the RP-LC retention time stood at 631 s.

The molecule `CCn1cc(CN2CC(Oc3ccc(-c4noc(-c5cccnc5)n4)cc3)C2)cn1` registered an RP-LC retention time of 635 s.

Turning to `O=C1CC(C(=O)N2CCCCCC2)CN1CCc1ccccc1` (configuration not stated), the RP-LC retention time was 760 s.

The molecule `Cc1nc(-c2cccc(-c3noc(CN4C(=O)COc5ccc(Cl)cc54)n3)c2)cs1` displayed an RP-LC retention time of 1180 s.

`CCn1cc(S(=O)(=O)NCc2ccccc2C)c2cccnc21` came in with an RP-LC retention time of 853 s.

Molecule `COc1ccccc1N1CCN(C(=O)C2CCCN(c3ncnc4c3nc3n4CCCCC3)C2)CC1` (configuration not stated) came in with an RP-LC retention time of 766 s.

For `Cc1cccc(-c2noc(-c3ccc(N4CCN(C)CC4)nc3)n2)c1`, the RP-LC retention time came out at 708 s.

`O=C(c1ccc2snnc2c1)N1CCN(c2ccccn2)CC1` came in with an RP-LC retention time of 576 s.

In turn, `COc1ccc(CNC(=O)NCCC(O)C(C)(C)C)cc1` (configuration not stated) showed an RP-LC retention time of 678 s.

Molecule `CCN(CC)CCCNC(=O)C1CCCN(c2ncc(-c3ccccc3)cn2)C1` (configuration not stated) registered an RP-LC retention time of 673 s.

The values above are taken from the METLIN SMRT retention time set (Domingo-Almenara et al. 2019).
